Experimental data: patent US8945540B2, “Compositions for enhancing the antibacterial activity of myeloperoxidase and methods of use thereof” (Exoxemis, Inc., priority 2008, dated 2015)
Where two headings read alike, the source gives them in different places.

Legend:
S. aureus = test: MIC, modified CLSI broth microdilution; assay type: cell-based, Staphylococcus aureus; settings: S. aureus ATCC 29213; inoculum prepared in Diluent solution
Source text: (§1) All clinical isolates were obtained from the culture collection of Eurofins Medinet Anti-Infective Services (Herndon, Va.), and represent diverse geographical regions. They were originally derived from clinical specimens and identified using standard microbiological methods (see Table 33 below for details). Escherichia coli ATCC 25922, Staphylococcus aureus ATCC 25923, S. aureus ATCC 29213, Pseudomonas aeruginosa ATCC 27853, and Enterococcus faecalis ATCC 29212 were used as quality control strains for the Enhanced MPO Solution and comparator agents to validate the modified Clinical and Laboratory Standards Institute (CLSI, formally NCCLS) broth microdilution method.
(§2) Modifications were made to the standard broth microdilution method to accommodate the rapid in vitro activity of the Enhanced MPO Solution as described below. Each antimicrobial agent and Concentrate solution was diluted in double strength cation-adjusted Mueller-Hinton Broth (CAMHB) and dispensed in mircrodilution trays. All β-hemolytic streptococci were tested in double strength CAMHB supplemented with 5% lysed horse blood. Isolates were prepared by suspending several colonies (four to six) from an overnight culture on Trypticase Soy Agar (TSA) with 5% sheep blood into sterile saline and the density adjusted to a 0.5 McFarland standard (˜10^8 CFU/ml). Standardized bacterial suspensions were further diluted in double strength Diluent solution so that approximately 5×10^5 CFU/ml was mixed with serial drug dilutions. The addition of Diluent solution to the Concentrate solution activates the enzyme system, which in turn exerts its rapid mode of action. The microdilution trays were incubated in ambient air at 35° C. for 18 to 24 h.
(§3) MIC ranges were established for the Enhanced MPO Solution by testing over 20 replicates of one lot of the Enhanced MPO Solution against S. aureus ATCC 29213 and E. coli ATCC 25922. Quality control parameters were then determined for the Enhanced MPO Solution by testing three lots of the Concentrate solution used for preparation of the final Enhanced MPO Solution formulation. Testing was performed in duplicate against S. aureus ATCC 29213 and E. coli ATCC 25922. The effects of modifying the standard broth microdilution test were also assessed with antibiotics with known quality control limits to validate the CLSI broth microdilution method.

E. coli = test: MIC, modified CLSI broth microdilution; assay type: cell-based, Escherichia coli; settings: E. coli ATCC 25922; inoculum prepared in Diluent solution
Source text: as §1, §2, §3

Staphylococcus aureus [1] = test: Control: microbicidal activity of the amino acid or analogue alone (no glucose, MPO, glucose oxidase) in the presence of blood; assay type: cell-based; settings: for log reduction at 5000 µM: Staphylococcus aureus, 1 h, read-out: Log Reduction 60 min
Source text: As a control to determine the microbicidal activity of the amino acids alone, the foregoing procedure was followed without replication, except in the absence of glucose, MPO, and glucose oxidase.

Staphylococcus aureus [2] = test: Microbicidal activity of the myeloperoxidase system (p-MPO, glucose oxidase, glucose) with amino acids in the presence of blood, CFU plate counts; synergy determination from these CFU; assay type: cell-based; settings: for Average Viability CFU/ml 60 min / Log Reduction 60 min / Log 10 (CFU + 1) Survivors 60 min: amino acid 5 mM (none: 0 mM), MPO 38 U/ml, GO 33.3 U/ml; for Average Viability CFU/ml 50 min / Log Reduction 50 min: MPO 4.7 U/ml, GO 4.2 U/ml
Method in brief: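 Staphylococcus aureus grown 24 hours in TSB at 35° C was washed in saline and added at a final 2-3×10^7 CFU per mL. The bacteria were mixed in 1 mL reactions with porcine myeloperoxidase, glucose oxidase, amino acids, 150 mM sodium chloride and 3% venous whole blood. Adding glucose to 150 mM started killing. After catalase addition, survivors were counted by serial dilution plating on TSA at 37° C for 24 hours.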

[3] = amino acid alone 5 mM, MPO 0, GO 0, no glucose, blood, without replication
[4] = MPO 100 μg/mL, AA 20 mM, 30 min
[5] = MPO 100 μg/mL, AA 20 mM, 60 min
[6] = Table 10, single amino acid 2.5 mM, in the presence of blood, 50 min
[7] = Table 19, amino acid (racemic, L- or D-form) 2.5 mM, 50 min
[8] = single amino acid 2.5 mM, blood
[9] = Table 13, single amino acid 2.5 mM, in the presence of blood, 50 min
[10] = Table 11, single amino acid 2.5 mM, in the presence of blood, 50 min

SMILES	log reduction at 5000 µM (Staphylococcus aureus [1]; [3])	Average Viability CFU/ml 60 min (Staphylococcus aureus [1]; [3]) [CFU/ml]	Log 10 (CFU + 1) Survivors (Staphylococcus aureus [2]; MPO 25 μg/mL, AA 5 mM, 30 min)	Log 10 (CFU + 1) Survivors (Staphylococcus aureus [2]; MPO 25 μg/mL, AA 5 mM, 60 min)	Log 10 (CFU + 1) Survivors (Staphylococcus aureus [2]; MPO 25 μg/mL, AA […], 30 min)	Log 10 (CFU + 1) Survivors (Staphylococcus aureus [2]; MPO 25 μg/mL, AA […], 60 min)	Log 10 (CFU + 1) Survivors (Staphylococcus aureus [2]; MPO 100 μg/mL, AA 5 mM, 30 min)	Log 10 (CFU + 1) Survivors (Staphylococcus aureus [2]; MPO 100 μg/mL, AA 5 mM, 60 min)	Log 10 (CFU + 1) Survivors (Staphylococcus aureus [2]; [4])	Log 10 (CFU + 1) Survivors (Staphylococcus aureus [2]; [5])	Average Viability CFU/ml 60 min (Staphylococcus aureus [2]; Table 5, blood) [CFU/ml]	Log Reduction 60 min (Staphylococcus aureus [2]; Table 5, blood)	Average Viability CFU/ml 50 min (Staphylococcus aureus [2]; [6]) [CFU/ml]	Log Reduction 50 min (Staphylococcus aureus [2]; [6])	also measured
Cc1nnc(SCC2=C(C(=O)O)N3C(=O)[C@@H](NC(=O)Cn4cnnn4)[C@H]3SC2)s1 [cefazolin]	–	–	–	–	–	–	–	–	–	–	–	–	–	–	MIC by the modified method versus published quality control ranges (S. aureus): within previously published quality control ranges; MIC by the modified method versus published quality control ranges (E. coli): within previously published quality control ranges
CC(C)[C@@H](N)C(=O)O [D-Valine]	0.1	20900000	4.1	0.0	6.7	0.0	0.0	0.0	0.0	0.0	0	7.4	630000	1.6	Average Viability CFU/ml 50 min (Staphylococcus aureus [2]; [7]): 630000 CFU/ml; Log Reduction 50 min (Staphylococcus aureus [2]; [7]): 1.6; Average Viability CFU/ml 50 min (Staphylococcus aureus [2]; [8]): 630000 CFU/ml; Log Reduction 50 min (Staphylococcus aureus [2]; [8]): 1.6
CSCC[C@@H](N)C(=O)O [D-Methionine]	0.1	21100000	–	–	–	–	–	–	–	–	9400000	0.4	–	–	–
COC(=O)[C@H](C)N [L-Ala methyl ester, L-Alanine methyl ester]	0	24300000	7.3	0.0	7.3	0.0	0.0	0.0	0.0	0.0	–	–	7250000	0.5	Average Viability CFU/ml 60 min (Staphylococcus aureus [2]; Table 4, blood): 0 CFU/ml; Log Reduction 60 min (Staphylococcus aureus [2]; Table 4, blood): 7.4
N[C@H](Cc1ccc(O)cc1)C(=O)O [D-Tyrosine]	0	23200000	6.8	5.9	6.7	7.0	6.7	5.0	5.8	0.0	9400	3.4	1320000	1.3	–
N[C@@H](CC(=O)O)C(=O)O [L-Aspartic acid]	0.1	18600000	7.1	7.0	7.0	6.9	7.0	5.8	7.0	6.8	–	–	6900000	0.6	Average Viability CFU/ml 60 min (Staphylococcus aureus [2]; Table 3, blood): 620000 CFU/ml; Log 10 (CFU + 1) Survivors 60 min (Staphylococcus aureus [2]; Table 3, blood): 5.8; Log Reduction 60 min (Staphylococcus aureus [2]; Table 3, blood): 1.5; Average Viability CFU/ml 50 min (Staphylococcus aureus [2]; [9]): 4700000 CFU/ml; Log Reduction 50 min (Staphylococcus aureus [2]; [9]): 0.7
N[C@H](CO)C(=O)O [D-Serine]	0	23100000	6.8	6.5	6.7	6.0	6.0	0.0	6.0	3.9	0	7.4	–	–	Average Viability CFU/ml 50 min (Staphylococcus aureus [2]; [10]): 945000 CFU/ml; Log Reduction 50 min (Staphylococcus aureus [2]; [10]): 1.5
NC(=O)CC[C@H](N)C(=O)O [L-Glutamine]	0	24100000	7.3	7.1	6.8	7.0	7.2	0.0	7.0	5.2	–	–	14350000	0.2	Average Viability CFU/ml 60 min (Staphylococcus aureus [2]; Table 2, blood): 286 CFU/ml; Log 10 (CFU + 1) Survivors 60 min (Staphylococcus aureus [2]; Table 2, blood): 2.5; Log Reduction 60 min (Staphylococcus aureus [2]; Table 2, blood): 4.9; Average Viability CFU/ml 50 min (Staphylococcus aureus [2]; [9]): 12550000 CFU/ml; Log Reduction 50 min (Staphylococcus aureus [2]; [9]): 0.3
N[C@@H](Cc1c[nH]c2ccccc12)C(=O)O [L-Tryptophan]	–	21600000	–	–	–	–	–	–	–	–	–	–	–	–	log reduction at 5000 µM (Staphylococcus aureus [1]): 0; Average Viability CFU/ml 60 min (Staphylococcus aureus [2]; Table 2, blood): 21150000 CFU/ml; Log 10 (CFU + 1) Survivors 60 min (Staphylococcus aureus [2]; Table 2, blood): 7.3; Log Reduction 60 min (Staphylococcus aureus [2]; Table 2, blood): 0.1
